Assay results reported in US4822774A, “Physiologically active peptide” (Eisai Co., Ltd., priority 1986, dated 1989).

Test system: Muscle of Bronchus Removed from Guinea Pig
Conditions: guinea pig trachea, 6.5×10^-6 M histamine; samples at 10^-5 M; area value of VIP--NH2 taken as 100 %
Text: A. Determination on Relaxation of Muscle of Bronchus Removed from Guinea Pig
The juglar vein of a male guinea pig weighing 300 g or more is cut, causing the guinea pig to be bled to death. The guinea pig undergoes thoracotomy. Immediately after the thoracotomy, 3 cm of the trachea is taken out. The trachea is immediately put in a Krebs solution. It is then cut into seven equal rings, and the cartilages are connected to one another with a cotton yarn to form a chain. Subsequently, the smooth muscle parts and cartilages opposite them are cut, so that the smooth muscle parts can be connected to one another. The preparation thus prepared is placed in an isothermic glass cell having an internal capacity of about 7 ml and suspended from above. The lower part of the preparation is fixed, while the upper part is connected to an isometric transducer, to which 0.5 g of a load has been applied, in order to determine the relaxation reaction. Sufficient amounts of 95 % oxygen and 5 % carbon dioxide gas are blown into the preparation. Further, a Krebs solution of 37° C. containing 6.5×10^-6 M histamine is dropped on the preparation from above at a flow rate of 3.3 ml/min. The relaxation reaction takes place to an extent proportional to the amount of a sample added to the dropped solution. By utilizing this relationship, the relaxation activity against bronchial smooth muscle with respect to the substance of the present invention is compared with that of VIP--NH2. VIP--NH2 is used at a concentration of 10^-5 M and dropped in amounts of 40 μl and 80 μl. The substance of the present invention is also used at a concentration of 10^- 5 M and dropped in amounts of 10 μl and 20 μl. The value of the area (height×time) in relaxation of each case is determined. The specific activities are obtained by taking the area value of VIP--NH2 as 100 % and determining the relative ratio of the area value of each use. Thus, the relaxation reactions are compared by the four-point assay method, with respect to the above-mentioned determination method, reference may be made to the following articles (e) and (f): […]

Row | SMILES | A: specific activity (%) obtained by method A (relaxation of bronchial smooth muscle, area value relative to VIP-NH2) [%]
1 | CC[C@H](C)[C@H](NC(=O)[C@H](CO)NC(=O)[C@H](CC(N)=O)NC(=O)[C@H](CC(C)C)NC(=O)[C@H](Cc1ccc(O)cc1)NC(=O)[C@H](CCCCN)NC(=O)[C@H](CCCCN)NC(=O)[C@@H](NC(=O)[C@H](C)NC(=O)[C@H](CCSC)NC(=O)[C@H](CCC(N)=O)NC(=O)[C@H](CCCCN)NC(=O)[C@H](CCCNC(=N)N)NC(=O)[C@H](CC(C)C)NC(=O)[C@H](CCCNC(=N)N)NC(=O)[C@@H](NC(=O)[C@H](Cc1ccc(O)cc1)NC(=O)[C@H](CC(N)=O)NC(=O)[C@H](CC(=O)O)NC(=O)[C@@H](NC(=O)[C@H](Cc1ccccc1)NC(=O)[C@@H](NC(=O)[C@H](C)NC(=O)[C@H](CC(=O)O)NC(=O)[C@H](CO)NC(=O)[C@@H](N)Cc1c[nH]cn1)C(C)C)[C@@H](C)O)[C@@H](C)O)C(C)C)C(=O)N[C@@H](CC(C)C)C(=O)N[C@@H](CC(N)=O)C(=O)NCC(=O)N[C@@H](CCCCN)C(=O)O [X=Met Y=Lys--OH] | 300
2 | CC[C@H](C)[C@H](NC(=O)[C@H](CO)NC(=O)[C@H](CC(N)=O)NC(=O)[C@H](CC(C)C)NC(=O)[C@H](Cc1ccc(O)cc1)NC(=O)[C@H](CCCCN)NC(=O)[C@H](CCCCN)NC(=O)[C@@H](NC(=O)[C@H](C)NC(=O)[C@H](CCSC)NC(=O)[C@H](CCC(N)=O)NC(=O)[C@H](CCCCN)NC(=O)[C@H](CCCNC(=N)N)NC(=O)[C@H](CC(C)C)NC(=O)[C@H](CCCNC(=N)N)NC(=O)[C@@H](NC(=O)[C@H](Cc1ccc(O)cc1)NC(=O)[C@H](CC(N)=O)NC(=O)[C@H](CC(=O)O)NC(=O)[C@@H](NC(=O)[C@H](Cc1ccccc1)NC(=O)[C@@H](NC(=O)[C@H](C)NC(=O)[C@H](CC(=O)O)NC(=O)[C@H](CO)NC(=O)[C@@H](N)Cc1c[nH]cn1)C(C)C)[C@@H](C)O)[C@@H](C)O)C(C)C)C(=O)N[C@@H](CC(C)C)C(=O)N[C@@H](CC(N)=O)C(=O)O [VIP - OH] | 60
3 | CC[C@H](C)[C@H](NC(=O)[C@H](CO)NC(=O)[C@H](CC(N)=O)NC(=O)[C@H](CC(C)C)NC(=O)[C@H](Cc1ccc(O)cc1)NC(=O)[C@H](CCCCN)NC(=O)[C@H](CCCCN)NC(=O)[C@@H](NC(=O)[C@H](C)NC(=O)[C@H](CCSC)NC(=O)[C@H](CCC(N)=O)NC(=O)[C@H](CCCCN)NC(=O)[C@H](CCCNC(=N)N)NC(=O)[C@H](CC(C)C)NC(=O)[C@H](CCCNC(=N)N)NC(=O)[C@@H](NC(=O)[C@H](Cc1ccc(O)cc1)NC(=O)[C@H](CC(N)=O)NC(=O)[C@H](CC(=O)O)NC(=O)[C@@H](NC(=O)[C@H](Cc1ccccc1)NC(=O)[C@@H](NC(=O)[C@H](C)NC(=O)[C@H](CC(=O)O)NC(=O)[C@H](CO)NC(=O)[C@@H](N)Cc1c[nH]cn1)C(C)C)[C@@H](C)O)[C@@H](C)O)C(C)C)C(=O)N[C@@H](CC(C)C)C(=O)N[C@@H](CC(N)=O)C(N)=O [VIP - NH2] | 100
